Data published in PMC6422671 (British Journal of Clinical Pharmacology, 2019).

Assay: Clinical laboratory findings: haematology; data mean (standard deviation)
Format: in vivo, healthy men
Excerpt: Data are mean (standard deviation).

Structure (SMILES): C[C@@H](N)c1cc(Cl)ccc1Cn1c(=S)[nH]c(=O)c2[nH]ccc21 [AZD4831]
- Basophils (5 mg fasted, 24 h): 0.03 (0.01) 10^9 L^–1
- Eosinophils (5 mg fasted, 24 h): 0.25 (0.12) 10^9 L^–1
- Erythrocyte MCH (5 mg fasted, 24 h): 29.8 (1.2) pg
- Erythrocyte MCH concentration (5 mg fasted, 24 h): 340 (5) g L^–1
- Erythrocyte MCV (5 mg fasted, 24 h): 87.5 (3.3) fL
- Erythrocytes (5 mg fasted, 24 h): 4.90 (0.28) 10^12 L^–1
- Haematocrit (5 mg fasted, 24 h): 0.43 (0.02) ratio
- Haemoglobin (5 mg fasted, 24 h): 146 (6) g L^–1
- Leukocytes (5 mg fasted, 24 h): 5.43 (0.71) 10^9 L^–1
- Lymphocytes (5 mg fasted, 24 h): 1.62 (0.37) 10^9 L^–1
- Monocytes (5 mg fasted, 24 h): 0.37 (0.06) 10^9 L^–1
- Neutrophils (5 mg fasted, 24 h): 3.07 (0.47) 10^9 L^–1
- Platelets (5 mg fasted, 24 h): 246 (44) 10^9 L^–1
- Reticulocytes (5 mg fasted, 24 h): 76.9 (15.3) 10^9 L^–1
- Basophils (5 mg fasted, 48 h): 0.04 (0.02) 10^9 L^–1
- Eosinophils (5 mg fasted, 48 h): 0.23 (0.10) 10^9 L^–1
- Erythrocyte MCH (5 mg fasted, 48 h): 29.6 (1.0) pg
- Erythrocyte MCH concentration (5 mg fasted, 48 h): 338 (6) g L^–1
- Erythrocyte MCV (5 mg fasted, 48 h): 87.7 (3.1) fL
- Erythrocytes (5 mg fasted, 48 h): 4.88 (0.26) 10^12 L^–1
- Haematocrit (5 mg fasted, 48 h): 0.43 (0.02) ratio
- Haemoglobin (5 mg fasted, 48 h): 145 (7) g L^–1
- Leukocytes (5 mg fasted, 48 h): 5.74 (1.20) 10^9 L^–1
- Lymphocytes (5 mg fasted, 48 h): 1.60 (0.38) 10^9 L^–1
- Monocytes (5 mg fasted, 48 h): 0.38 (0.06) 10^9 L^–1
- Neutrophils (5 mg fasted, 48 h): 3.38 (1.02) 10^9 L^–1
- Platelets (5 mg fasted, 48 h): 240 (50) 10^9 L^–1
- Reticulocytes (5 mg fasted, 48 h): 84.4 (20.3) 10^9 L^–1
- Basophils (5 mg fasted, follow up): 0.04 (0.01) 10^9 L^–1
- Eosinophils (5 mg fasted, follow up): 0.26 (0.12) 10^9 L^–1
- Erythrocyte MCH (5 mg fasted, follow up): 29.5 (1.1) pg
- Erythrocyte MCH concentration (5 mg fasted, follow up): 334 (5) g L^–1
- Erythrocyte MCV (5 mg fasted, follow up): 88.2 (3.1) fL
- Erythrocytes (5 mg fasted, follow up): 4.98 (0.36) 10^12 L^–1
- Haematocrit (5 mg fasted, follow up): 0.44 (0.02) ratio
- Haemoglobin (5 mg fasted, follow up): 147 (8) g L^–1
- Leukocytes (5 mg fasted, follow up): 5.94 (1.03) 10^9 L^–1
- Lymphocytes (5 mg fasted, follow up): 1.47 (0.34) 10^9 L^–1
- Monocytes (5 mg fasted, follow up): 0.45 (0.15) 10^9 L^–1
- Neutrophils (5 mg fasted, follow up): 3.59 (0.73) 10^9 L^–1
- Platelets (5 mg fasted, follow up): 249 (38) 10^9 L^–1
- Reticulocytes (5 mg fasted, follow up): 91.6 (15.7) 10^9 L^–1
- Basophils (15 mg fasted, 24 h): 0.04 (0.01) 10^9 L^–1
- Eosinophils (15 mg fasted, 24 h): 0.21 (0.07) 10^9 L^–1
- Erythrocyte MCH (15 mg fasted, 24 h): 29.6 (0.7) pg
- Erythrocyte MCH concentration (15 mg fasted, 24 h): 341 (2) g L^–1
- Erythrocyte MCV (15 mg fasted, 24 h): 86.8 (2.0) fL
- Erythrocytes (15 mg fasted, 24 h): 5.08 (0.27) 10^12 L^–1
- Haematocrit (15 mg fasted, 24 h): 0.44 (0.03) ratio
- Haemoglobin (15 mg fasted, 24 h): 150 (9) g L^–1
- Leukocytes (15 mg fasted, 24 h): 5.94 (1.90) 10^9 L^–1
- Lymphocytes (15 mg fasted, 24 h): 1.75 (0.55) 10^9 L^–1
- Monocytes (15 mg fasted, 24 h): 0.46 (0.17) 10^9 L^–1
- Neutrophils (15 mg fasted, 24 h): 3.37 (1.36) 10^9 L^–1
- Platelets (15 mg fasted, 24 h): 193 (28) 10^9 L^–1
- Reticulocytes (15 mg fasted, 24 h): 77.2 (18.6) 10^9 L^–1
- Basophils (15 mg fasted, 48 h): 0.04 (0.01) 10^9 L^–1
- Eosinophils (15 mg fasted, 48 h): 0.22 (0.07) 10^9 L^–1
- Erythrocyte MCH (15 mg fasted, 48 h): 29.5 (1.1) pg
- Erythrocyte MCH concentration (15 mg fasted, 48 h): 340 (7) g L^–1
- Erythrocyte MCV (15 mg fasted, 48 h): 86.9 (2.9) fL
- Erythrocytes (15 mg fasted, 48 h): 5.03 (0.23) 10^12 L^–1
- Haematocrit (15 mg fasted, 48 h): 0.44 (0.02) ratio
- Haemoglobin (15 mg fasted, 48 h): 148 (8) g L^–1
- Leukocytes (15 mg fasted, 48 h): 6.08 (1.88) 10^9 L^–1
- Lymphocytes (15 mg fasted, 48 h): 1.71 (0.49) 10^9 L^–1
- Monocytes (15 mg fasted, 48 h): 0.52 (0.21) 10^9 L^–1
- Neutrophils (15 mg fasted, 48 h): 3.47 (1.39) 10^9 L^–1
- Platelets (15 mg fasted, 48 h): 204 (25) 10^9 L^–1
- Reticulocytes (15 mg fasted, 48 h): 78.1 (24.5) 10^9 L^–1
- Basophils (15 mg fasted, follow up): 0.04 (0.02) 10^9 L^–1
- Eosinophils (15 mg fasted, follow up): 0.22 (0.08) 10^9 L^–1
- Erythrocyte MCH (15 mg fasted, follow up): 29.1 (1.0) pg
- Erythrocyte MCH concentration (15 mg fasted, follow up): 334 (2) g L^–1
- Erythrocyte MCV (15 mg fasted, follow up): 87.3 (2.5) fL
- Erythrocytes (15 mg fasted, follow up): 5.06 (0.37) 10^12 L^–1
- Haematocrit (15 mg fasted, follow up): 0.44 (0.03) ratio
- Haemoglobin (15 mg fasted, follow up): 147 (10) g L^–1
- Leukocytes (15 mg fasted, follow up): 5.81 (1.43) 10^9 L^–1
- Lymphocytes (15 mg fasted, follow up): 1.63 (0.38) 10^9 L^–1
- Monocytes (15 mg fasted, follow up): 0.49 (0.07) 10^9 L^–1
- Neutrophils (15 mg fasted, follow up): 3.32 (1.20) 10^9 L^–1
- Platelets (15 mg fasted, follow up): 221 (33) 10^9 L^–1
- Reticulocytes (15 mg fasted, follow up): 89.9 (32.9) 10^9 L^–1
- Basophils (45 mg fasted, 24 h): 0.04 (0.02) 10^9 L^–1
- Eosinophils (45 mg fasted, 24 h): 0.20 (0.12) 10^9 L^–1
- Erythrocyte MCH (45 mg fasted, 24 h): 28.4 (2.1) pg
- Erythrocyte MCH concentration (45 mg fasted, 24 h): 335 (8) g L^–1
- Erythrocyte MCV (45 mg fasted, 24 h): 84.8 (5.8) fL
- Erythrocytes (45 mg fasted, 24 h): 5.01 (0.18) 10^12 L^–1
- Haematocrit (45 mg fasted, 24 h): 0.42 (0.03) ratio
- Haemoglobin (45 mg fasted, 24 h): 142 (9) g L^–1
- Leukocytes (45 mg fasted, 24 h): 5.28 (1.15) 10^9 L^–1
- Lymphocytes (45 mg fasted, 24 h): 1.74 (0.42) 10^9 L^–1
- Monocytes (45 mg fasted, 24 h): 0.37 (0.13) 10^9 L^–1
- Neutrophils (45 mg fasted, 24 h): 2.83 (0.90) 10^9 L^–1
- Platelets (45 mg fasted, 24 h): 220 (39) 10^9 L^–1
- Reticulocytes (45 mg fasted, 24 h): 69.8 (16.4) 10^9 L^–1
- Basophils (45 mg fasted, 48 h): 0.04 (0.02) 10^9 L^–1
- Eosinophils (45 mg fasted, 48 h): 0.21 (0.10) 10^9 L^–1
- Erythrocyte MCH (45 mg fasted, 48 h): 28.4 (2.3) pg
- Erythrocyte MCH concentration (45 mg fasted, 48 h): 335 (15) g L^–1
- Erythrocyte MCV (45 mg fasted, 48 h): 84.9 (5.9) fL
- Erythrocytes (45 mg fasted, 48 h): 5.02 (0.33) 10^12 L^–1
- Haematocrit (45 mg fasted, 48 h): 0.43 (0.03) ratio
- Haemoglobin (45 mg fasted, 48 h): 142 (8) g L^–1
- Leukocytes (45 mg fasted, 48 h): 5.69 (1.06) 10^9 L^–1
- Lymphocytes (45 mg fasted, 48 h): 1.79 (0.36) 10^9 L^–1
- Monocytes (45 mg fasted, 48 h): 0.38 (0.10) 10^9 L^–1
- Neutrophils (45 mg fasted, 48 h): 3.16 (0.95) 10^9 L^–1
- Platelets (45 mg fasted, 48 h): 222 (44) 10^9 L^–1
- Reticulocytes (45 mg fasted, 48 h): 77.3 (19.5) 10^9 L^–1
- Basophils (45 mg fasted, follow up): 0.05 (0.02) 10^9 L^–1
- Eosinophils (45 mg fasted, follow up): 0.20 (0.15) 10^9 L^–1
- Erythrocyte MCH (45 mg fasted, follow up): 28.3 (2.3) pg
- Erythrocyte MCH concentration (45 mg fasted, follow up): 333 (10) g L^–1
- Erythrocyte MCV (45 mg fasted, follow up): 85.0 (5.8) fL
- Erythrocytes (45 mg fasted, follow up): 5.08 (0.35) 10^12 L^–1
- Haematocrit (45 mg fasted, follow up): 0.43 (0.02) ratio
- Haemoglobin (45 mg fasted, follow up): 143 (7) g L^–1
- Leukocytes (45 mg fasted, follow up): 5.88 (1.09) 10^9 L^–1
- Lymphocytes (45 mg fasted, follow up): 1.61 (0.45) 10^9 L^–1
- Monocytes (45 mg fasted, follow up): 0.45 (0.13) 10^9 L^–1
- Neutrophils (45 mg fasted, follow up): 3.45 (1.25) 10^9 L^–1
- Platelets (45 mg fasted, follow up): 245 (38) 10^9 L^–1
- Reticulocytes (45 mg fasted, follow up): 79.1 (19.3) 10^9 L^–1
